Assay results as given in patent US20080039328A1, “Post Harvest Control of Genetically Modified Crop Growth Employing D-Amino Acid Compounds” (BASF PLANT SCIENCE GMBH, priority 2004, published 2008).
“Also recorded” adds a separate entry of the source.

Legend:
[1] = system: Transgenic Arabidopsis plants (DAAO from Rhodotorula gracilis); assay: Greenhouse spraying of mixed plantlets on soil with D-isoleucine; format: in vivo; settings: sprayed, 10 mM, 20 mM, 30 mM in isotonic salt solution, pH 7.0, soil, green-house
Procedure: (§1) Transgenic Arabidopsis, Brassica napus, and Zea mays plants are generated as described above using either construct I (SEQ ID NO: 15) or construct II (SEQ ID NO: 16) for Agrobacterium mediated transformation. Transgenic plants are selected using the negative selection marker property of the D-amino acid oxidase on medium comprising 0.3, 3 or 30 mM D-alanine (or D-serine). Resulting transgenic plants are selfed to obtain homozygous plants. Homozygous plants are propagated over 2 to 3 generations to ensure stability of the transgenic insertion.
(§2) Seeds of transgenic plants are mixed with seeds of the corresponding non-transgenic line (used for transformation). Various proportions of transgenic versus non-transgenic seeds are used (1:1, 1:10, 1:100).
(§3) Seeds are sown on standard soil under green-house conditions. After germination, developing plantlets were sprayed at various developmental steps with preparations of D-isoleucine (final concentration of 10 mM, 20 mM, 30 mM, respectively in isotonic salt solution, pH 7.0).

[2] = system: Transgenic Brassica napus plants (DAAO from Rhodotorula gracilis); assay: as above; format: in vivo; settings: sprayed, 10 mM, 20 mM, 30 mM in isotonic salt solution, pH 7.0, soil, green-house
Procedure: as §1, §2, §3

[3] = system: non-transgenic Brassica napus plants; assay: as above; format: in vivo; settings: sprayed, 10 mM, 20 mM, 30 mM in isotonic salt solution, pH 7.0, soil, green-house
Procedure: as §1, §2, §3

[4] = system: non-transgenic Arabidopsis plants; assay: as above; format: in vivo; settings: sprayed, 10 mM, 20 mM, 30 mM in isotonic salt solution, pH 7.0, soil, green-house
Procedure: as §1, §2, §3

[5] = system: non-transgenic Zea mays plants; assay: as above; format: in vivo; settings: sprayed, 10 mM, 20 mM, 30 mM in isotonic salt solution, pH 7.0, soil, green-house
Procedure: as §1, §2, §3

[6] = system: Transgenic Zea mays plants (DAAO from Rhodotorula gracilis); assay: as above; format: in vivo; settings: sprayed, 10 mM, 20 mM, 30 mM in isotonic salt solution, pH 7.0, soil, green-house
Procedure: as §1, §2, §3

[7] = system: wild-type Arabidopsis thaliana; assay: Growth of wild-type A. thaliana plantlets on medium with D-amino acids; format: in vivo
Procedure: Wild type Arabidopsis thaliana plantlets were grown on half-concentrated Murashige-Skoog medium (0.5% (wt/vol) sucrose, 0.8% (wt/vol) agar) supplemented with the indicated D-amino acid at either 3 mM (Panel A) or 30 mM (Panel B).
(§4) FIG. 4 D-amino acid dose responses of dao1 transgenic and wild-type A. thaliana. (a-d) Growth of dao1 transgenic line 3:7 (white), 10:7 (light gray), 13:4 (gray) and wild-type (black) plants, in fresh weight per plant, on media containing various concentrations of D-serine, D-alanine, D-isoleucine and D-valine in half-strength MS with 0.5% (wt/vol) sucrose and 0.8% (wt/vol) agar. Different concentration ranges were used for different ID-amino acids. The plants were grown for 10 d after germination under 16 h photoperiods at 24° C.; n=10±s.e.m., except for plants grown on D-isoleucine, where smaller Petri dishes were used, (n=6±s.e.m.).
(§5) T1 seeds of transgenic Arabidopsis plants were surface-sterilized and sown in Petri plates that were sealed with gas-permeable tape. The growth medium was half strength MS19 with 0.5% (wt/vol) sucrose and 0.8% (wt/vol) agar, plus 3 mM D-alanine, 3 mM D-serine or 50 μg/ml kanamycin as the selective agent. Plants were grown for 5 d after germination with a 16 h photoperiod at 24° C. To evaluate the selection efficiency on different substrates, 2,074, 1,914 and 1,810 T1 seeds were sown on D-alanine-, D-serine- and kanamycin-selective plates, respectively, and the number of surviving seedlings was counted (44, 32 and 43, respectively).

[8] = system: dao1 transgenic A. thaliana; assay: Growth of dao1 (DAAO) transgenic A. thaliana on medium with D-amino acids; format: in vivo, Arabidopsis thaliana
Procedure: as §4, §5
The T-DNA contained both 35S:dao1 and pNos:nptII, allowing D-amino acid and kanamycin selection to be compared in the same lot of seeds.
Therefore, plants containing the construct were tested as described above on two sets of media, one containing D-isoleucine and the other containing D-valine at various concentrations, to assess whether DAAO could also be used as a counter-selection marker. Unambiguous counter-selection selection was achieved when seeds were sown on either D-isoleucine or D-valine at concentrations greater than 10 mM (FIG. 4 c,d).

DAAO = molecular target: T1, DAAO (Rhodotorula toruloides, UniProt P80324); assay: DAAO incubation of cell-free plant extracts, keto acid production by HPLC; format: biochemical, Rhodotorula gracilis; settings: cell-free extracts from dao1 transgenic line 10:7
T1 construct: expressed in transfected cells; host or cells: Arabidopsis thaliana (Col-0), dao1 transgenic line 10:7, transformed with pPCV702:dao1 (CaMV 35S); crude soluble protein extract
T1 sequence (P80324 25-368): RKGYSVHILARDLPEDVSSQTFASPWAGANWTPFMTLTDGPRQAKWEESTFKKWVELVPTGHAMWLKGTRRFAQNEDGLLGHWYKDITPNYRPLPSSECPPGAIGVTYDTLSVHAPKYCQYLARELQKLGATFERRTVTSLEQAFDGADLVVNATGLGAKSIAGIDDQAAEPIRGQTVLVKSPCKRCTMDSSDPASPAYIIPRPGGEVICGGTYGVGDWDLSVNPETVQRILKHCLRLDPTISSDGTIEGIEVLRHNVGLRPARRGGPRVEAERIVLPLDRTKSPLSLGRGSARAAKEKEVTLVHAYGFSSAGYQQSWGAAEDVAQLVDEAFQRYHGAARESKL
Procedure: Soluble proteins were extracted by shaking 0.1 g samples of plant material that had been finely pulverized in a 1.5 ml Eppendorf tube in 1 ml of 0.1 M potassium phosphate buffer, pH 8. DAAO activity was then assayed as follows. Reaction mixtures were prepared containing 2,120 μl of 0.1 M potassium phosphate buffer, pH 8, 80 μl of crude protein extract and 100 μl of 0.3 M D-alanine. The samples were incubated for 2 h at 30° C. The enzyme activity was then assessed, by measuring the increase in absorbance at 220 nm (E=1.090 M^−1 cm^−1) associated with the conversion of D-alanine to pyruvate, after transferring the test tubes to boiling water for […] to stop the reaction. In control reactions, D-alanine was added immediately before boiling. One unit of DAAO activity is defined as the turnover of one micromole of substrate per minute, and activity was expressed per gram plant biomass (fresh weight). The breakdown of D-isoleucine and D-valine in DAAO incubations, and the associated production of 3-methyl-2-oxopentanoate and 3-methyl-2-oxobutanoate, were analyzed by high-performance liquid chromatography. In other respects the reactions were carried out as described above.
Presumably endogenous transaminase may be specific for the L-enantiomer, so the corresponding D-enantiomer is not metabolized in wildtype plants, but only in plants expressing DAAO. […]

[9] = various concentrations in half-strength MS, 10 d after germination

With `CC[C@@H](C)[C@@H](N)C(=O)O` [D-isoleucine] the “Transgenic plants able to reach maturity” value [1] was “None”, the “Transgenic plants able to reach maturity” value [2] was “None” and the “Effect of the treatment on non-transgenic plants” value (“Effect … on non-transgenic plants” for short) [3] was “unaffected”. For the same molecule, the “Effect … on non-transgenic plants” value [4] was “unaffected”, the “Effect … on non-transgenic plants” value [5] was “unaffected” and the “Transgenic plants able to reach maturity” value [6] was “None”. For the same molecule, the “Effect on plant growth (FIG. 3)” value ([7]; 3 mM or 30 mM in half-concentrated Murashige-Skoog medium, wild type plantlets) was “no significant effects”, the “Response of wild-type plants (compared with DAAO lines)” value ([7]; in vivo) was “grew well, with no sign of toxicity” and the “Effect on wild-type plantlets (FIG. 2)” value ([7]; treated with 30 mM) was “no severe damage”. For the same molecule, the “Growth of wild-type plants (FIG. 4)” value [7, 9] was “not toxic; also recorded: minor effects; also recorded: not the wild-type plants”, the “Response of thirteen individual lines expressing DAAO” value ([8]; in vivo) was “effectively killed” and the “Effect on transgenic plantlets comprising DAAO gene (FIG. 2)” value ([8]; treated with 30 mM) was “toxic effect”. The “Growth of plants expressing DAAO (FIG. 4)” value [8, 9] was “strong negative influence on the growth; also recorded: inhibit growth” and the “Increase in production of 3-methyl-2-oxopentanoate compared to extracts of wild-type plants” value (DAAO) was 15 fold.
